Values joined by “and” are separate entries in the source; they are usually repeats but may differ in a detail not shown here. Equal values may be shown once.
How the values were obtained:
[1] = tested on: tobacco mosaic virus (TMV); assay: TMV-tobacco cv. xanthi model, protection against biotic stress (necrotic spots); assay type: in vivo, Nicotiana tabacum cv. xanthi; conditions: for Resistance induction [%] (Reduction of necrotic spots related to control): evaluated after another 4 days
Experimental: Tobacco plants (Nicotiana tabacum) cv. xanthi at the stage of three developed leaves was watered (i.e. applied to the roots) twice with BTHWA solution of 10 mg/L, in one-week intervals. Control tobacco plants were irrigated with water only. […] To assess the biological effectiveness in protecting plants against biotic stress, the TMV-tobacco cv. xanthi model was used. This pathogen-plant model includes determining the hypersensitivity interaction phenomena with formation of necrotic spots which are quantifiable.
Tobacco plants (Nicotiana tabacum) cv. xanthi at the stage of three developed leaves were sprayed once with BION™ or BTHWA solutions at a concentration of 20 mg/L. A week later, the plants were mechanically infected with TMV virus by repeatedly rubbing the leaves with carborundum steeped in a suspension of the purified virus at the concentration of approx. 2 μg/ml. The level of protection against biotic stress was assessed by comparing the number of necrotic spots caused by TMV on the leaves of plants treated by BTHWA or BION™ and compared to the control (plant sprayed with water only).
Reduction of the amount of necrotic spots indicates protection against influence of the biotic factor on the plant.
The procedure as described in Example 4 was followed, however, the treated and control plants were divided into three batches and their leaves were inoculated with a virus, respectively after 1, 2, and 3 weeks past the last treatment with BTHWA or water only.
After six days, plants treated with a solution of the working fluid at a BTHWA concentration <100 mg/L were inoculated with tobacco mosaic virus (TMV) in order to determine the degree of induction of resistance caused by the formulation. After another 4 days of infection by TMV, the level of infection was evaluated by determining the number and size of necrotic spot caused by viral disease oi the plant leaves relative to the control.
Research on the durability of the induced resistance effect on the model of tobacco plants against TMV virus was performed. […] The group of plants were then infected with the virus after 1, 3, 6, 10, 15, 20, 25 and 30 days (Table 3).

[2] = tested on: Radish seeds; assay: Germination of radish seeds; assay type: in vivo; conditions: seeds in 10 mg/L solution, after 2 days
Experimental: Radish seeds were placed in water-containing solution of BTHWA at a concentration of 10 mg/L or water only (control samples).

[3] = tested on: Tobacco plants; assay: Protection against abiotic stress in tobacco caused by lack of water; assay type: in vivo; conditions: watered twice 20 mg/L; 10 days after cessation of watering
Experimental: Tobacco plants at the stage of 3 developed leaves were watered twice with BTHWA at concentration of 20 mg/L, at a weekly intervals. Control […] plants were watered with water only. A week after the second treatment, plants were exposed to a stress factor in the form of lack of access to water.

[4] = tested on: potato virus Y (PVY); assay: Field experiment on potato, PVY infection of tubers by DAS ELISA; assay type: in vivo, potato variety Altesse; conditions: for % of tubes infected by PVY Virus: field
[5] = tested on: Pyrenophora teres; assay: Field test on barley, fungal infection by Pyrenophora teres; assay type: in vivo, Hordeum vulgare (spring); conditions: Example 27: BTHWA 20 mg/L with Trend 90 EC, six foliar applications at 10 days intervals; harvested 13 days after last treatment
Experimental: The test was conducted on a variety of barley Hordeum vulgare (spring). As such, six applications of the active substance solution was made. The study was conducted on fields of about 25 m^2 in quadruplicate for each combination tested. […] (with the addition of commercial adjuvant) followed by treatment with common fungicide (tebukonazole in formulation containing 250 g of active substance to be applied per 1 ha) in reducing infection of fungi Pyrenophora teres in barley (Hordeum vulgare (spring)) was performed. […] Six applications of the active substance BTHWA solution were made. As a control, one application of fungicide was performed at the time as indicated on the product label. The study was conducted on fields of about 25 m^2 in quadruplicate for each combination tested. […] The fungicide was applied in an amount of 33% its recommended dose (83 g/ha). Six applications of the active substance BTHWA solution were made. As a control, one application of fungicide was performed at the time as indicated on the product label. The study was conducted on fields of about 25 m^2 in quadruplicate for each combination tested.

[6] = tested on: Rhynchosporium secalis; assay: Field test on barley, fungal infection by Rhynchosporium secalis; assay type: in vivo, Hordeum vulgare (spring); conditions: Example 28: BTHWA 20 mg/L with Trend 90 EC, six foliar applications at 10 days intervals; harvested 13 days after last treatment
Experimental: The test was on a variety of barley Hordeum vulgare (spring). There were six applications of the active substance solution. The study was conducted on fields of about 25 m^2 in quadruplicate for each combination tested.

[7] = tested on: Nicotiana tabacum var. xanthi; assay: Phytotoxicity of BTHWA spray on tobacco under greenhouse conditions; conditions: 5 to 1000 mg/L tested
Experimental: Experiments were carried out on a model tobacco plant (Nicotiana tabacum var. xanthi) under greenhouse conditions, where the plant was in the three-developed leaves phase. The plants were sprayed (with full coverage of the leaves surface) with a solution of a working fluid having a concentration of active substance (BTHWA) starting from 5 and ending at 1000 mg/L The phytotoxicity of the BTHWA was evaluated.

[8] = watered once with 100 ml of 20 mg/L

CON(C)C(=O)c1cccc2nnsc12 [BTHWA, N-methyl-N-methoxy-7-carboxybenzo[1,2,3]thiadiazole amide]
Resistance induction [%] (Reduction of necrotic spots related to control) ([1]; spray 5 mg/L, TMV inoculation after six days): 85% | Resistance induction [%] (Reduction of necrotic spots related to control) ([1]; spray 10 mg/L, TMV inoculation after six days): 97% | Resistance induction [%] (Reduction of necrotic spots related to control) ([1]; spray 20 mg/L, TMV inoculation after six days): 97% | Resistance induction [%] (Reduction of necrotic spots related to control) ([1]; spray 50 mg/L, TMV inoculation after six days): 98% | lowest possible concentration at which the efficiency is maintained at greater than 90% ([1]; spray, TMV inoculation after six days): 10 mg/L | effectiveness in preventing biotic stress compared with BION ([1]; sprayed once, 20 mg/L): more effective in preventing the occurrence of biotic stress | Average number of the local necrotic spots per leaf ([1]; sprayed once, 20 mg/L, TMV infection a week later): 0 | Reduction of necrotic spots [%] ([1]; sprayed once, 20 mg/L, TMV infection a week later, vs control): 100% | persistence of the resistance effect after a single application [1, 8]: up to 25 days | time to activation of resistance after application [1, 8]: after at least three days | % of induction (reduction of necrotic spots related to control) ([1]; watered once with 100 ml of 20 mg/L, virus inoculation 1 day after application): <10% | % of induction (reduction of necrotic spots related to control) ([1]; watered once with 100 ml of 20 mg/L, virus inoculation 3 days after application): 10-20% | % of induction (reduction of necrotic spots related to control) ([1]; watered once with 100 ml of 20 mg/L, virus inoculation 6 days after application): 94% | % of induction (reduction of necrotic spots related to control) ([1]; watered once with 100 ml of 20 mg/L, virus inoculation 10 days after application): 96% | % of induction (reduction of necrotic spots related to control) ([1]; watered once with 100 ml of 20 mg/L, virus inoculation 15 days after application): 95% | % of induction (reduction of necrotic spots related to control) ([1]; watered once with 100 ml of 20 mg/L, virus inoculation 20 days after application): 95% | % of induction (reduction of necrotic spots related to control) ([1]; watered once with 100 ml of 20 mg/L, virus inoculation 25 days after application): 91% | % of induction (reduction of necrotic spots related to control) ([1]; watered once with 100 ml of 20 mg/L, virus inoculation 30 days after application): 85% | protection against biotic stress (number of necrotic spots vs control) ([1]; watered twice with 10 mg/L at one-week intervals, TMV infection a week after second treatment): restricts the influence of biotic factor | durability of protection against TMV biotic stress ([1]; watering 10 mg/L twice, inoculation 1, 2 and 3 weeks after last treatment): effective after three weeks | increase of the mass of the germ in comparison to control [2]: 5% | total mass of the untreated plants lower than the weight of the treated plants [3]: 13% | reduction in the amount of PVY virus occurrence in the treated plants ([4]; foliar application 20 mg/L of operational fluid, field conditions): ~50% | % of tubes infected by PVY Virus ([4]; foliar application 20 mg/L with mineral oil adjuvant, 7 days intervals): 44.2% | % of tubes infected by PVY Virus ([4]; tuber dressing 20 mg/L + foliar application 20 mg/L): 40.7% | % of infection [5]: 17% and 17.50% | % of infection [6]: 10% and 10.63% | concentration in the working fluid at which phytotoxic effects were observed (yellowing of the leaves, necrosis of leaves, growth inhibition) [7]: above 100 mg/L

From patent publication US20210345614A1, “APPLICATION OF 7-CARBOXYBENZO[1,2,3]THIADIAZOLE AMIDES AS PLANT STIMULANTS” (ADAM MICKIEWICZ UNIVERSITY FOUNDATION, priority 2015, published 2021)
